How the values were obtained:
[1] = test system: bisphenol A‐induced hypertension; parameters: method as in PMID 25103225; conditions: cited from earlier work
[2] = test system: rat mesenteric arteries; assay: Isometric tension: relaxation of U46619-induced contraction in rat mesenteric artery rings; parameters: species or system Sprague‐Dawley rats; conditions: mesenteric artery rings pretreated with 100 μmol/L for 30 minutes
Source text: Male Sprague‐Dawley rats were purchased from Orient Bio (Gyeonggi‐do, South Korea). The thoracic aortas and mesenteric arteries were excised and immersed in an ice‐cold, modified Krebs solution composed of NaCl (115 mmol/L), KCl (4.7 mmol/L), CaCl2 (2.5 mmol/L), MgCl2 (1.2 mmol/L), NaHCO3 (25 mmol/L), KH2PO4 (1.2 mmol/L) and dextrose (10 mmol/L). Mesenteric arteries are secondary branches of the main mesenteric trunk. The aortas and mesenteric arteries were cleaned by removing adherent connective tissue, soaked in the Krebs‐bicarbonate solution and cut into four ring segments (3.5 mm in length), as described previously.14 Some rings were denuded of endothelium by gently rubbing the internal surface with the edge of the forceps. Each aortic ring was suspended in a water‐jacketed organ bath (6 mL) maintained at 37°C and aerated with a mixture of 95% O2 and 5% CO2. Each ring was connected to an isometric force transducer (Danish Myo Technology, Skejbyparken, Aarhus N, Denmark). Rings were stretched to an optimal resting tension of 2.0 g, which was maintained throughout the experiment. Each ring was equilibrated in the organ bath solution for 90 minutes before the experiment involving the contractile response to 50 mmol/L of KCl addition. […]

[3] = test system: HUVECs; assay: Nitric oxide production in HUVECs (DAF-FM DA fluorescence); assay type: cell-based, Human; conditions: 250 μmol/L, 24 h
Description: A10 vascular smooth muscle cells (VSMCs) were incubated with Dulbecco's modified Eagle medium (DMEM) with 4500 mg/L glucose containing 10% foetal bovine serum (FBS). Passages were carried out every 2 or 3 days. VSMCs were maintained in DMEM in the presence of 10% FBS with low glucose (1000 mg/L). Human umbilical vein endothelial cells (HUVECs) were obtained from Gibco (Waltham, MA, USA). HUVECs were grown in an endothelial cell basal medium (EBM) with EGM‐2 bullet kit (Lonza, Walkersville, MD) and maintained at 37°C under 5% CO2. Cells were cultured for 5‐7 passages.
We used a nitric oxide‐sensitive fluorescence probe, 4‐amino‐5‐methylamino‐2′,7′‐difluorescein diacetate (DAF‐FM DA, Cayman), for nitric oxide detection. HUVECs were seeded on coverslips in 12‐well plates (1.5 × 10^5/mL). Cells, serum‐starved with EBM for 16 hour, were treated with LMK235 (1 μmol/L) or L‐NAME (250 μmol/L) for 24 hour and incubated with DAF‐FM DA (2.5 μmol/L) for 45 minutes. Next, the cells were fixed with 70% ethanol for 45 minutes and mounted using Prolog Gold antifade reagent and DAPI (Invitrogen, USA).

[4] = test system: angiotensin II‐induced hypertensive mice; conditions: cited from earlier work; for elevated BP: angiotensin II-induced hypertensive mice
[5] = test system: SHRs; conditions: cited from earlier work

COc1ccc(S(=O)(=O)N(CCO)c2ccccc2CN(C)C/C=C/c2ccc(Cl)cc2)cc1 [KN 93]
bisphenol A-induced hypertension [1]: inhibit

COC(=O)[C@@H](N)CCCNC(N)=N[N+](=O)[O-] [L‐NAME, reference compound]
LMK235-induced vascular relaxation [2]: inhibited vascular relaxation | LMK235-induced increase of nitric oxide production [3]: reduced

Cn1c(/C=C/C(=O)NO)ccc1/C=C/C(=O)c1cccc(F)c1 [MC1568]
vascular hypertrophy and hyperplasia ([4]; angiotensin II-induced hypertensive mice and VSMCs): attenuates | elevated BP [4]: lowered elevated BP

CC(/C=C/C(=O)NO)=C\[C@@H](C)C(=O)c1ccc(N(C)C)cc1 [TSA, Trichostatin A]
augmented angiotensin II-induced contraction in the mesenteric artery ([5]; SHRs): reversed | systolic BP ([5]; SHRs): decreased systolic BP

CN1CCc2c(c3ccccc3n2Cc2ccc(C(=O)NO)cc2)C1 [tubastatin A]
elevated BP [4]: not

CCCC(CCC)C(=O)O [valproic acid]
BP ([5]; SHRs or DOCA-salt-induced hypertensive rats): attenuated BP | cardiac AT1 mRNA levels ([5]; SHRs): reduced

Reference: PMC6433685, “Histone deacetylase inhibitor LMK235 attenuates vascular constriction and aortic remodelling in hypertension” (Journal of Cellular and Molecular Medicine, 2019)
